Experimental data: US11389415B2, “Methods of regulating cannabinoid receptor activity-related disorders and diseases” (The United States of America as represented by the …, priority 2012, dated 2022)
Read-outs that look alike come from different tables or passages of the source.

What was measured:
[1] = test system: U87; test: tumor cell growth, U87; conditions: Homo sapiens, U-87 MG, read-out: IC50 (uM), U87 (CNS)
[2] = test system: MCF7; test: tumor cell growth, MCF7; conditions: Homo sapiens, MCF7, read-out: IC50 (uM), MCF7 (Breast C)
[3] = test system: A549; test: tumor cell growth, A549; conditions: Homo sapiens, A549, read-out: IC50 (uM), A549 (NSCLC)
[4] = test system: U251; test: tumor cell growth, U251; conditions: Homo sapiens, U-251, read-out: IC50 (uM), U251 (CNS)
[5] = test system: A172; test: tumor cell growth, A172; conditions: Homo sapiens, A 172, read-out: IC50 (uM), A172 (CNS)
[6] = test system: U118; test: tumor cell growth, U118; conditions: read-out: IC50 (uM), U118 (CNS)
[7] = test system: HEPG2; test: tumor cell growth, HEPG2; conditions: Homo sapiens, HepG2, read-out: IC50 (uM), HEPG2 (Liver C)
[8] = test system: GL261; test: tumor cell growth, GL261; conditions: Mus musculus, GL261, read-out: IC50 (uM), GL261 (CNS)
[9] = test system: LN-18; test: tumor cell growth, LN-18; conditions: Homo sapiens, LN-18, read-out: IC50 (uM), LN-18 (CNS)
[10] = test system: PANC-1; test: tumor cell growth, PANC-1; conditions: Homo sapiens, PANC-1, read-out: IC50 (uM), PANC-1 (Pancreatic C)
[11] = test system: Du-145; test: tumor cell growth, Du-145; conditions: Homo sapiens, DU-145, read-out: IC50 (uM), Du-145 (Prostate C)
[12] = test system: MDAMB231; test: tumor cell growth, MDAMB231; conditions: Homo sapiens, MDA-MB-231, read-out: IC50 (uM), MDAMB231 (Breast C)
[13] = test system: PC3; test: tumor cell growth (CTG), PC3; conditions: Homo sapiens
[14] = test system: HT29; test: tumor cell growth (CTG), HT29; conditions: Homo sapiens
[15] = test system: HT29; test: Thymidine (Thy) 96 well, HT29; conditions: Homo sapiens, read-out: IC50 (uM), HT29 (Colon Cancer)
[16] = test system: HEP3B; test: tumor cell growth (CTG), HEP3B; conditions: Homo sapiens, Hep3B
[17] = test system: HCT116; test: tumor cell growth (CTG), HCT116; conditions: Homo sapiens
[18] = test system: HCT116; test: Thymidine (Thy) 96 well, HCT116; conditions: Homo sapiens, read-out: IC50 (uM), HCT116 (Colon Cancer)
[19] = test system: NCIH460; test: Thymidine (Thy) 96 well, NCIH460; conditions: Homo sapiens, read-out: IC50 (uM), NCIH460 (NSCLC)
[20] = test system: H460; test: tumor cell growth (CTG), H460 / NCIH460; conditions: Homo sapiens
[21] = test system: LN-229; test: tumor cell growth (CTG), LN-229 / LN229; conditions: Homo sapiens
[22] = test system: PC3; test: [3H]-Thymidine incorporation in 96-well plates (Thy), PC3; conditions: Homo sapiens, read-out: IC50 (uM), PC3 (Prostrate Cancer)
[23] = test system: HEP3B; test: [3H]-Thymidine incorporation in 96-well plates (Thy), HEP3B; conditions: Homo sapiens, Hep3B, read-out: IC50 (uM), HEP3B (Liver Cancer)
[24] = test system: LN229; test: [3H]-Thymidine incorporation in 96-well plates (Thy), LN229; conditions: Homo sapiens, read-out: IC50 (uM), LN229 (CNS Cancer)

SMILES: COc1cccc2c1C(=O)c1c(O)c3c(c(O)c1C2=O)C[C@@](O)(C(=O)CO)C[C@@H]3O[C@H]1C[C@H](N)[C@H](O)[C@H](C)O1 [Doxorubicin, reference compound]
- IC50 [1]: 0.21 µM
- IC50 [2]: 0.3 µM
- IC50 [3]: 0.11 µM
- IC50 [4]: 0.17 µM
- IC50 [5]: 0.46 µM
- IC50 [6]: 0.81 µM
- IC50 [7]: 0.28 µM
- IC50 [8]: 0.17 µM
- IC50 [9]: 0.53 µM
- IC50 [10]: 2.97 µM
- IC50 [11]: 0.38 µM
- IC50 [12]: 0.68 µM
- IC50 ([13]; PC-3, 24 h, read-out: IC50 (uM), PC3 (Prostrate Cancer)): 3.02 µM
- IC50 ([13]; PC-3, 48 h, read-out: IC50 (uM), PC3 (Prostrate Cancer)): 0.93 µM
- IC50 ([13]; PC-3, 72 h, read-out: IC50 (uM), PC3 (Prostrate Cancer)): 0.91 µM
- IC50 ([13]; PC-3, read-out: IC50 (uM), PC3 (Prostate C)): 0.91 µM
- IC50 ([14]; HT-29, 48 h, read-out: IC50 (uM), HT29 (Colon Cancer)): 0.52 µM
- IC50 ([14]; HT-29, 72 h, read-out: IC50 (uM), HT29 (Colon Cancer)): 0.26 µM
- IC50 ([14]; HT-29, read-out: IC50 (uM), HT29 (Colon C)): 0.26 µM
- IC50 ([15]; HT-29, 24 h): 0.11 µM
- IC50 ([15]; HT-29, 48 h): 0.12 µM
- IC50 ([16]; 48 h, read-out: IC50 (uM), HEP3B (Liver Cancer), 96 well CTG 2 days treatment): 0.52 µM
- IC50 ([16]; 72 h, read-out: IC50 (uM), HEP3B (Liver Cancer), 384well CTG 3 days treatment −1): 0.43 µM
- IC50 ([16]; 72 h, read-out: IC50 (uM), HEP3B (Liver Cancer), 384well CTG 3 days treatment −2): 0.35 µM
- IC50 ([16]; read-out: IC50 (uM), HEP3B (Liver C), Table 6): 0.43 µM
- IC50 ([17]; HCT-116, 24 h, read-out: IC50 (uM), HCT116 (Colon Cancer), 96 well CTG 1 day treatment): 0.21 µM
- IC50 ([17]; HCT-116, 48 h, read-out: IC50 (uM), HCT116 (Colon Cancer), 96 well CTG 2 days treatment): 0.23 µM
- IC50 ([17]; HCT-116, 72 h, read-out: IC50 (uM), HCT116 (Colon Cancer), 384well CTG 3 days treatment −1): 0.06 µM
- IC50 ([17]; HCT-116, 72 h, read-out: IC50 (uM), HCT116 (Colon Cancer), 384well CTG 3 days treatment −2): 0.21 µM
- IC50 ([17]; HCT-116, read-out: IC50 (uM), HCT116 (Colon C), Table 6): 0.06 µM
- IC50 ([18]; HCT-116, 24 h): 0.12 µM
- IC50 ([18]; HCT-116, 48 h): 0.14 µM
- IC50 ([19]; NCI-H460, 24 h): 0.09 µM
- IC50 ([19]; NCI-H460, 48 h): 0.03 µM
- IC50 ([20]; NCI-H460, 24 h, read-out: IC50 (uM), NCIH460 (NSCLC), 96 well CTG 1 day treatment): 0.31 µM
- IC50 ([20]; NCI-H460, 48 h, read-out: IC50 (uM), NCIH460 (NSCLC), 96 well CTG 2 days treatment): 0.12 µM
- IC50 ([20]; NCI-H460, 72 h, read-out: IC50 (uM), NCIH460 (NSCLC), 384well CTG 3 days treatment −1): 0.02 µM
- IC50 ([20]; NCI-H460, 72 h, read-out: IC50 (uM), NCIH460 (NSCLC), 384well CTG 3 days treatment −2): 0.11 µM
- IC50 ([20]; NCI-H460, read-out: IC50 (uM), H460 (NSCLC), Table 6): 0.02 µM
- IC50 ([21]; LN-229, 48 h, read-out: IC50 (uM), LN229 (CNS Cancer)): 1.7 µM
- IC50 ([21]; LN-229, 72 h, read-out: IC50 (uM), LN229 (CNS Cancer)): 0.61 µM
- IC50 ([21]; LN-229, read-out: IC50 (uM), LN-229 (CNS)): 0.61 µM
- IC50 ([22]; PC-3, 24 h): 0.04 µM
- IC50 ([22]; PC-3, 48 h): 0.28 µM
- IC50 ([23]; 24 h): 0.04 µM
- IC50 ([23]; 48 h): 0.02 µM
- IC50 ([24]; LN-229, 24 h): 0.1 µM
- IC50 ([24]; LN-229, 48 h): 0.07 µM
